Experimental data: US7425562B2, “Inhibitors of cruzipain and other cysteine proteases” (Amura Therapeutics Ltd., priority 2001, dated 2008)

Assays:
Type in all cases: biochemical
[1] = target: T1, Cruzipain (Trypanosoma cruzi, UniProt P25779); assay: Trypanosoma cruzi cruzipain peptidase activity assay (Ki); settings: wild-type cruzipain from Trypanosoma cruzi Dm28 epimastigotes, pH 6.75, 25±1° C
T1 construct: Wild-type cruzipain, derived from Trypanosoma cruzi Dm28 epimastigotes; tissue Dr. Julio Scharfstein (Instituto de Biofisica Carlos Chagas Filho); host or cells: Trypanosoma cruzi Dm28 epimastigotes
Protocol: (§1) Assay protocols were based on literature precedent (Tablel; Barrett, A. J., Rawlings, N. D. and Woessner, J. F., 1998, Handbook of Proteolytic Enzymes, Academic Press, London and references therein) and modified as required to suit local assay protocols. Enzyme was added as required to initiate the reaction and the activity, as judged by the change in fluorescence upon conversion of substrate to product, was monitored over time. All assays were carried out at 25±1° C.
Wild-type cruzipain, derived from Trypanosoma cruzi Dm28 epimastigotes, was obtained from Dr. Julio Scharfstein (Instituto de Biofisica Carlos Chagas Filho, Universidade Federal do R^10 de Janeiro, R^10 de Janeiro, Brazil). Activity assays were carried out in 100 mM sodium phosphate, pH 6.75 containing 1 mM EDTA and 10 mM Loysteine using 2.5 nM enzyme. Ac-Phe-Arg-AMC (KM^app≈12 μM) and D-Val-Leu-Lys-AMC (KM^app≈4 μM) were used as the substrates. Routinely, Ac-FR-AMC was used at a concentration equivalent to KM^app and D-Val-Leu-Lys-AMC was used at a concentration of 25 μM. The rate of conversion of substrate to product was derived from the slope of the increase in fluorescence monitored continuously over time.
(§2) The apparent inhibition constant (Ki) for each compound was determined on the basis that inhibition was reversible and occurred by a pure-competitive mechanism. The Ki values were calculated, from the dependence of enzyme activity as a function of inhibitor concentration, by direct regression analysis (Prism v 3.02) using Equation 2 (Cornish-Bowden, A., 1995.).
(§3) In situations where the apparent dissociation constant (Ki^app) approached the enzyme concentrations, the Ki^app values were calculated using a quadratic solution in the form described by Equation 3 (Morrison, J. F. Trends Biochem. Sci., 7, 102-105, 1982; Morrison, J. F. Biochim. Biophys. Acta, 185, 269-286, 1969; Stone, S. R. and Hofsteenge, J. Biochemistry, 25, 4622-4628, 1986).

[2] = target: T2, Bovine Cathepsin S (Bos taurus, UniProt P25326); assay: Cathepsin peptidase activity assay, bovine cathepsin S (Ki); settings: boc-Val-Leu-Lys-AMC, pH 6.5, 25±1° C
T2 construct: purchased CN Biosciences
Protocol: as §1
(§4) Bovine cathepsin S, human cathepsin L, human cathepsin H and human cathepsin B were obtained from CN Biosciences. Recombinant human cathepsin S, human cathepsin K and human cathepsin X were obtained from Dr. Boris Turk (Josef Stefan Institute, Ljubljana, Slovenia). Unless otherwise stated, all peptidase activity assays were carried out in 10 mM bis-tris-propane (BTP), pH 6.5 containing 1 mM EDTA, 5 mM 2-mercaptoethanol and 1 mM CaCl2. Human cathepsin H activity assays were carried out in 10 mM BTP pH 6.5, 142 mM […], 1 mM CaCl2, 1 mM EDTA, 1 mM DTT, 0.035 mM Zwittergent 3-16. Human cathepsin K assays were carried out in 100 mM sodium acetate; pH 5.5 containing 20 mM L-cysteine and 1 mM EDTA (Bossard, M. J., et. al., J. Biol. Chem., 21, 12517-12524, 1996). Human cathepsin X assays were carried out in 100 mM sodium acetate; pH 5.5 containing 20 mM L-cysteine; 0.05% (w/v) Brij 35 and 1 mM EDTA (Santamaria, I., et. al., J. Biol. Chem., 273, 16816-16823, 1998; Klemencic, J, et al., Eur. J. Biochem., 267, 5404-5412, 2000). […] The rate of conversion of substrate to product was derived from the slope of the increase in fluorescence monitored continuously over time.
as §2, §3

[3] = target: T3, Human Cathepsin L (Homo sapiens, UniProt P07711); assay: Cathepsin peptidase activity assay, human cathepsin L (Ki); settings: Ac-Phe-Arg-AMC, pH 6.5, 25±1° C
T3 construct: purchased CN Biosciences
Protocol: as §1, §4, §2, §3

[4] = target: T4, Human Cathepsin K (Homo sapiens, UniProt P43235); assay: Cathepsin peptidase activity assay, human cathepsin K (Ki); settings: pH 5.5, 25±1° C
T4 construct: Dr. Boris Turk (Josef Stefan Institute, Ljubljana, Slovenia)
T4 sequence (P43235 115-329): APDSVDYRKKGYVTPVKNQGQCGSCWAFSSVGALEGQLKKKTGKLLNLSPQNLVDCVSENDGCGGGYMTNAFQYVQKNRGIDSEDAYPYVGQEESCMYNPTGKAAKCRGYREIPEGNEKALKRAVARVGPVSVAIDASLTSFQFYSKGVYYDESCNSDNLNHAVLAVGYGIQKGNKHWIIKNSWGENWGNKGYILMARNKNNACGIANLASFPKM
Protocol: as §1, §4, §2, §3

T1 sequence (P25779 123-467): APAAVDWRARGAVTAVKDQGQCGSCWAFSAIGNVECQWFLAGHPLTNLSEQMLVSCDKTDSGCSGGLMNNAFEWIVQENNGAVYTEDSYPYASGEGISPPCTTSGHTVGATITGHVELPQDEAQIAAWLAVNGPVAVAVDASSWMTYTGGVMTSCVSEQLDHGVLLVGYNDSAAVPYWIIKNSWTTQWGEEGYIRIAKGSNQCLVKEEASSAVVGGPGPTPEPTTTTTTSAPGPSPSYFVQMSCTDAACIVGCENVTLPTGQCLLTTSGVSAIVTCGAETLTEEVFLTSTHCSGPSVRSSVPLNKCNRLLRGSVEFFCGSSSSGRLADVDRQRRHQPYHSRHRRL
T3 sequence (P07711 114-333): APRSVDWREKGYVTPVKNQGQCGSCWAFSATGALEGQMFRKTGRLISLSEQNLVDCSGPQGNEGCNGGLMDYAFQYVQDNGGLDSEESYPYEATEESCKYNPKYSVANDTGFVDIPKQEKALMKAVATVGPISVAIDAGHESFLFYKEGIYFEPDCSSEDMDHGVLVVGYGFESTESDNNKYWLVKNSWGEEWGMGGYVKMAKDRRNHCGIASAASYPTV
T2 sequence (P25326 115-331): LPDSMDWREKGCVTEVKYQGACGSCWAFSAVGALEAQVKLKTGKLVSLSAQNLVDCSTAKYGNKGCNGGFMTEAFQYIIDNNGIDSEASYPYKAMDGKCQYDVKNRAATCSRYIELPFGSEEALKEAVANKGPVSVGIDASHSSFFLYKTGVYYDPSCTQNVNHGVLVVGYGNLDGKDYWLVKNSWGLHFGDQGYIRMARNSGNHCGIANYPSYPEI

Row | Ki [1] [µM] | Ki [2] [µM] | Ki [3] [µM] | Ki [4] [µM] | SMILES
1 | 0.2 | > 100 | > 35 | > 5 | CC(C)(C)c1ccc(C(=O)N[C@@H](Cc2ccc(O)cc2)C(=O)N2CC[C@H]3OCC(=O)[C@H]32)cc1 [Example 3, (3aS, 6aR) 4-tert-Butyl-N-[1S-(4-hydroxybenzyl)-2-oxo-2-(3-oxo-hexahydrofuro[3,2-b]pyrrol-4-yl)ethyl]benzamide]
2 | > 5 | > 10 | > 25 | 0.1 | CC(C)C[C@H](NC(=O)c1ccc(Oc2ccccc2)cc1)C(=O)N1CC[C@H]2OCC(=O)[C@H]21 [Example 10, (3aS, 6aR) N-[3-methyl-1S-(3-oxo-hexahydrofuro[3,2-b]pyrrole-4-carbonyl)butyl]-4-phenoxybenzamide]
3 | > 25 | 0.3 | > 100 | > 10 | O=C(N[C@@H](CSCc1ccccc1)C(=O)N1CC[C@H]2OCC(=O)[C@H]21)c1ccoc1 [Example 48, (3aS, 6aR) Furan-3-carboxylic Acid [1R-benzylsulfanylmethyl-2-oxo-2-(3-oxo-hexahydrofuro[3,2-b]pyrrol-4-yl)ethyl]amide]
4 | > 5 | > 10 | 0.8 | > 100 | O=C(N[C@@H](Cc1ccc(O)cc1)C(=O)N1CC[C@H]2OCC(=O)[C@H]21)c1cccc2ccccc12 [Example 69, (3aS, 6aR) Naphthalene-1-carboxylic Acid [1S-(4-hydroxybenzyl)-2-oxo-2-(3-oxo-hexahydrofuro[3,2-b]pyrrol-4-yl)ethyl]amide]
